Reference: ChEMBL document CHEMBL1140617, “Quantitative structure-activity relationship of sesquiterpene lactones with cytotoxic activity” (2007)
≈ marks a conversion by molar mass, not a printed value.

Tested on: KB
Assay: Cytotoxicity against human KB cells
Assay type: functional
Conditions: for EC50: Homo sapiens, KB, read-out: ED50 (the source's name)

SMILES | pED50 | EC50 | ED50 | ED100
C=C1C(=O)O[C@H]2C/C(C)=C/C[C@@H](OC(C)=O)/C(C)=C/[C@@H](OC(C)=O)[C@H]12 [CHAMISSONIN DIACETATE] | 5.68 | 2.13 µg/mL | – | –
C=C1C(=O)O[C@H]2CC3=C[C@@H](C[C@]4(C)O[C@@H]4[C@@H](O)[C@H]12)OC3=O [ELEPHANTOL] | 3.91 | 36 µg/mL (≈ 123 µM) | – | –
C=C[C@@]12COC(=O)C(=C)[C@@H]1[C@H]1OC(=O)C(=C)[C@@H]1[C@@H](OC(=O)C(=C)CO)C2 [VERNODALIN] | 5.3 | 1.8 µg/mL (≈ 4.99 µM) | – | –
C=C1C(=O)O[C@@H]2[C@H]1CC[C@H](C)[C@]1(O)CCC(=O)[C@@]21C [CORONOPILIN] | 5.26 | 1.45 µg/mL (≈ 5.49 µM) | – | –
C=C1C(=O)O[C@H]2[C@H]1[C@H](OC(=O)/C(C)=C\C)C[C@](O)(CCl)[C@@H]1[C@H](O)C=C(C)[C@]21O [EUPACHLORIN] | 6.29 | 0.21 µg/mL (≈ 0.509 µM) | – | –
C=C1C(=O)O[C@H]2[C@H]1[C@H](OC(=O)/C(C)=C\C)C[C@]1(CO1)[C@@H]1[C@H](OC(C)=O)C=C(C)[C@]21O [EUPAROTIN ACETATE] | 6.28 | 0.22 µg/mL | – | –
C=C[C@@]12COC(=O)C(=C)[C@@H]1[C@H]1OC(=O)C(=C)[C@@H]1[C@@H](O)C2 [VERNOLEPIN] | 5.19 | 1.8 µg/mL (≈ 6.51 µM) | – | –
C=C1C(=O)O[C@@H]2/C=C(/C)[C@@]3(O)C=C[C@@](C)(C[C@@H](OC(=O)/C(=C\C)COC(C)=O)[C@@H]12)O3 [LIATRIN] | 5.41 | 1.62 µg/mL (≈ 3.87 µM) | – | –
C=C1C(=O)O[C@H]2[C@H]1[C@H](OC(=O)/C(C)=C\C)CC(=C)[C@@H]1[C@H](O)[C@H]3O[C@@]3(C)[C@@]12O (stereo in doubt; 28) [EUPATUNDIN] | 5.98 | 0.47 µg/mL (≈ 1.25 µM) | – | –
C=C1C(=O)O[C@@H]2/C=C(/CO)[C@@H](OC(C)=O)C[C@H](O)/C(C)=C\[C@@H](OC(=O)C(C)=CC)[C@@H]12 [EUPACUNOLIN] | 5.06 | 3.7 µg/mL (≈ 8.8 µM) | – | –
C=C1C(=O)O[C@@H]2/C=C(\C)[C@H](O)CC=C(C)CC[C@@H]12 [TAMAULIPIN B] | 4.98 | 2.6 µg/mL (≈ 10.5 µM) | – | –
C=C1C(=O)O[C@@H]2[C@H]1CC[C@H](C)[C@@H]1C[C@@H](O)C(=O)[C@@]21C | 5 | 2.65 µg/mL (≈ 10 µM) | – | –
C=C[C@@]12COC(=O)C(=C)[C@@H]1[C@@H](O)[C@@H]1C(=C)C(=O)O[C@H]1C2 [VERNOMENIN] | 3.9 | 35 µg/mL (≈ 127 µM) | – | –
C=C1C(=O)O[C@@H]2/C=C(\C)[C@@H](OC(C)=O)C/C=C(/C)C(O)[C@@H](OC(=O)/C(C)=C\C)[C@@H]12 (some centres undefined) [EUPATOCUNIN] | 6.57 | 0.11 µg/mL (≈ 0.272 µM) | – | –
C=C1C(=O)O[C@@H]2[C@H]1CC[C@H](C)[C@]1(O)C=CC(=O)[C@@]21C [PARTHENIN] | 5.89 | 0.34 µg/mL (≈ 1.3 µM) | – | –
C=C1C(=O)O[C@@H]2[C@H]1[C@@H](O)C[C@H](C)[C@@H]1CCC(=O)[C@@]21C [DESACETYLCONFERTIFLORIN] | 5.06 | 2.3 µg/mL (≈ 8.7 µM) | – | –
C=C[C@]12COC(=O)C(=C)[C@H]1[C@H](OC(C)=O)[C@H]1C(=C)C(=O)O[C@@H]1C2 [VERNOMENIN ACETATE] | 4.58 | 8 µg/mL | – | –
C=C1C(=O)O[C@@H]2/C=C3\CCC4OC4(C[C@H](OC(=O)C(C)C)[C@@H]12)C(O)OC3 (some centres undefined) [VERNOMYGDIN] | 5.39 | 1.5 µg/mL (≈ 4.12 µM) | – | –
C=C1C(=O)O[C@@H]2[C@H]1CC[C@H](C)[C@@H]1C=CC(=O)[C@@]21C [AMBROSIN] | 5.74 | 0.45 µg/mL (≈ 1.83 µM) | – | –

SMILES | pED50 | EC50 | ED50 | ED100
C=C1C(=O)O[C@H]2[C@H]1[C@H](OC(=O)/C(C)=C\C)C[C@](O)(CCl)[C@@H]1[C@H](OC(C)=O)C=C(C)[C@]21O [EUPACHLORIN ACETATE] | 5.21 | 0.16 µg/mL | – | –
C=C1C(=O)O[C@@H]2C[C@@H](C)[C@@H]3C=CC(=O)[C@@]3(C)[C@@H](O)[C@H]12 (stereo in doubt) [HELENALIN] | 6.12 | 0.2 µg/mL (≈ 0.762 µM) | – | –
C=C1C(=O)O[C@H]2C=C(C)[C@H]3[C@@H](OC(C)=O)C[C@@](C)(O)[C@@H]3C[C@H]12 [GAILLARDIN] | 5.12 | 2.3 µg/mL (≈ 7.51 µM) | – | –
C=C1C(=O)O[C@H]2[C@H]1[C@H](OC(=O)/C(C)=C\C)C[C@](O)(CCl)[C@@H]1[C@H](O)[C@H]3O[C@@]3(C)[C@]21O (single isomer, unassigned) [EUPACHLOROXIN] | 5.08 | 3.6 µg/mL (≈ 8.39 µM) | – | –
C=C1C(=O)O[C@H]2C[C@@H](C)[C@@H]3C=CC(=O)[C@@]3(C)[C@H](O)[C@H]12 (single isomer, unassigned) [MEXICANIN I] | 5.9 | 0.33 µg/mL (≈ 1.26 µM) | – | –
C=C1C(=O)O[C@@H]2/C=C(\C)[C@@H](OC(C)=O)CC=C(C)C(OC(=O)[C@]3(C)O[C@@H]3C)C(O)[C@@H]12 (some centres undefined) [EUPATOCUNOXIN] | 5.39 | 1.7 µg/mL (≈ 4.04 µM) | – | –
C=C1C(=O)O[C@@H]2/C=C(\C)CCC=C(C)CC[C@@H]12 [COSTUNOLIDE] | 5.61 | 0.57 µg/mL (≈ 2.45 µM) | – | –
C=C(C)C(=O)O[C@H]1CC2=C[C@@H](C[C@@]3(C)O[C@@H]3[C@H]3OC(=O)C(=C)[C@@H]31)OC2=O [ELEPHANTOPIN] | 5.6 | 0.94 µg/mL (≈ 2.61 µM) | – | –
C=C1C(=O)O[C@H]2[C@H]1[C@H](OC(=O)/C(C)=C\C)CC(=C)[C@@H]1[C@H](O)[C@H]3O[C@@]3(C)[C@@]12O (stereo in doubt; 20) [EUPATUNDIN] | 6.46 | – | 0.47 µg/mL (≈ 1.25 µM) | –
C=C1C(=O)O[C@H]2[C@H]1[C@H](OC(=O)/C(C)=C\C)C[C@]1(CO1)[C@@H]1[C@H](O)[C@H]3O[C@@]3(C)[C@]21O [EUPATOROXIN] | 5.15 | 2.8 µg/mL (≈ 7.14 µM) | – | –
C=C1C(=O)O[C@H]2C[C@@H](C)[C@@H]3C=CC(=O)[C@@]3(C)C[C@H]12 (single isomer, unassigned) [AROMATICIN] | 5.86 | 0.34 µg/mL (≈ 1.38 µM) | – | –
C=C[C@@]12COC(=O)C(=C)[C@@H]1[C@H]1OC(=O)C(=C)[C@@H]1[C@@H](OC(C)=O)C2 [VERNOLEPIN ACETATE] | 5.07 | 2.7 µg/mL | – | –
C=C1C(=O)O[C@H]2[C@H]1[C@H](OC(=O)/C(C)=C/C)C[C@]1(CO1)[C@@H]1[C@H](O)C=C(C)[C@]21O [EUPAROTIN] | 6.25 | – | – | 0.21 µg/mL
C=C[C@@]12COC(=O)C(=C)[C@@H]1[C@H]1OC(=O)C(=C)[C@@H]1[C@@H](OC(=O)C(=C)C)C2 (single isomer, unassigned) [VERNOLEPIN METHACRYLATE] | 5.91 | 0.42 µg/mL (≈ 1.22 µM) | – | –
C=C1C(=O)O[C@H]2[C@H]1[C@H](OC(=O)/C(C)=C\C)C[C@@]1(CO1)[C@@H]1[C@H](O)[C@H]3O[C@@]3(C)[C@]21O | 5.18 | 2.6 µg/mL (≈ 6.63 µM) | – | –
C=C1C(=O)O[C@@H]2/C=C(\C)C[C@H](O)C=C(C)CC[C@@H]12 [TAMAULIPIN A] | 5.29 | 1.26 µg/mL (≈ 5.07 µM) | – | –
C=C1C(=O)O[C@@H]2/C=C(/C)[C@@H](OC(C)=O)CC(O)/C(C)=C\[C@@H](OC(=O)C3(C)O[C@@H]3C)[C@@H]12 (single isomer, unassigned) [EUPACUNOXIN] | 5.3 | 2.1 µg/mL (≈ 4.99 µM) | – | –
C=C1C(=O)O[C@H]2[C@H]1[C@@H](OC(=O)C=C(C)C)CC1=C[C@@H](C[C@@]3(C)O[C@H]23)OC1=O [ELEPHANTIN] | 5.49 | 1.16 µg/mL (≈ 3.1 µM) | – | –
